Results published in patent publication US12552796B2, “EED inhibitor, and preparation method therefor and use thereof” (SHANGHAITECH UNIVERSITY, priority 2019, dated 2026).
Like-named read-outs stand apart in the source and are kept apart here.

Tested on: cellular H3K27 methylation
Assay: Cellular H3K27 methylation assay (Western blot of H3K27me3 in HeLa cells)
Assay type: cell-based
Conditions: Homo sapiens, 72 h, read-out: PD IC50
[1] = HeLa cells, 3 days, H3K27me3 level by Western blot

SMILES	IC50 [1] [nM]	IC50 (HeLa) [nM]
COCCC(COC)c1cnc(NCc2c(F)ccc3c2CCO3)n2cnnc12 (stereo not shown) [HJM-012]	112	
Fc1ccc2c(c1CNc1ncc(C3CCCCO3)c3nncn13)CCO2 (stereo not shown) [HJM-004, N-((5-fluoro-2,3-dihydrobenzofuran-4-yl)methyl)-8-(tetrahydro-2H-pyran-2-yl)-[1,2,4]triazolo[4,3-c]pyrimidin-5-amine]	140	
O=C(N1CCC(c2cnc(NCc3c(F)ccc4c3CCO4)n3cnnc23)CC1)C(F)(F)F [HJM-056]	12.8	
Fc1ccc2c(c1CNc1ncc(Nc3ccccc3)c3nncn13)CCO2 [HJM-066]		228
O=C(Nc1cnc(NCc2c(F)ccc3c2CCO3)n2cnnc12)C1CCC1 [HJM-035]	53.6	
CC(=O)N1CC(COc2cnc(NCc3c(F)ccc4c3CCO4)n3cnnc23)C1 [HJM-117]	1300	
COC1CCN(c2cnc(NCc3c(F)ccc4c3CCO4)n3cnnc23)C1 (stereo not shown) [HJM-063]	684	
CCCN(C(=O)C1CC1)c1cnc(NCc2c(F)ccc3c2CCO3)n2cnnc12 [HJM-080]	35	
O=C(Nc1cnc(NCc2c(F)ccc3c2CCO3)n2cnnc12)C1CCOCC1 [HJM-041]	334	
CC(=O)Nc1cnc(NCc2c(F)ccc3c2CCO3)n2cnnc12 [HJM-069]	391	
O=C(c1cnc(NCc2c(F)ccc3c2CCO3)n2cnnc12)N1CCCCC1 [HJM-028]	95.3	
Fc1ccc2c(c1CNc1nccc3nncn13)CCO2 [HJM-001]	484	
Fc1ccc2c(c1CNc1ncc(CCCN3CCCCC3)c3nncn13)CCO2 [HJM-008]	112	
Cc1ncccc1CCc1cnc(NCc2c(F)ccc3c2CCO3)n2cnnc12 [HJM-005]	454	
Fc1ccc2c(c1CNc1ncc(OC3CCOC3)c3nncn13)CCO2 (stereo not shown) [HJM-018]	59.2	
CN(C)C(=O)Oc1cnc(NCc2c(F)ccc3c2CCO3)n2cnnc12 [HJM-151]		91.1
Fc1ccc2c(c1CNc1ncc(OCc3ccccc3)c3nncn13)CCO2 [HJM-139]		120
Fc1ccc2c(c1CNc1ncc(OCc3cccnc3)c3nncn13)CCO2 [HJM-140]	21.4	
CN(C)C(=O)COc1cnc(NCc2c(F)ccc3c2CCO3)n2cnnc12 [HJM-149]		546
O=C(NC1CC1)c1cnc(NCc2c(F)ccc3c2CCO3)n2cnnc12 [HJM-029]	82.2	
Fc1ccc2c(c1CNc1ncc(OCCN3CCOCC3)c3nncn13)CCO2 [HJM-013]	225	
COc1cccc(F)c1CNc1ncc(CCc2cccnc2C)c2nncn12 [HJM-047]	7000	
O=C(Nc1cnc(NCc2c(F)ccc3c2CCO3)n2cnnc12)c1ccncc1 [HJM-044]	288	
CC(c1cnc(NCc2c(F)ccc3c2CCO3)n2cnnc12)N1CCCCC1 (stereo not shown) [HJM-009]	563	

SMILES	IC50 [1] [nM]	IC50 (HeLa) [nM]
Fc1ccc2c(c1CNc1ncc(C3CCCCC3)c3nncn13)CCO2 [HJM-051]	167	
O=C(Nc1cnc(NCc2c(F)ccc3c2CCO3)n2cnnc12)c1ccccc1F [HJM-092]	139	
O=C(c1cnc(NCc2c(F)ccc3c2CCO3)n2cnnc12)N1CCC1 [HJM-153]	93.2	
O=C(CO)Nc1cnc(NCc2c(F)ccc3c2CCO3)n2cnnc12 [HJM-075]	690	
O[C@H]1CC[C@H](COc2cnc(NCc3c(F)ccc4c3CCO4)n3cnnc23)CC1 [HJM-125]	463	
Fc1ccc2c(c1CNc1ncc(/C=C/CN3CCOCC3)c3nncn13)CCO2 [HJM-007]	49.9	
COc1cnc(NCc2c(F)ccc3c2CCO3)n2cnnc12 [HJM-014]	43.7	
COc1cccc(F)c1CNc1ncc(/C=C/c2cccnc2C)c2nncn12 [HJM-046]	2000	
Fc1ccc2c(c1CNc1ncc(C3CCOC3)c3nncn13)CCO2 (stereo not shown) [HJM-054]	31.1	
O=C(Nc1cnc(NCc2c(F)ccc3c2CCO3)n2cnnc12)C1CCCCO1 (stereo not shown) [HJM-039]	67.2	
CNC(=O)COc1cnc(NCc2c(F)ccc3c2CCO3)n2cnnc12 [HJM-148]	1090	
COc1cccc(F)c1CNc1ncc(Oc2cccnc2C)c2nncn12 [HJM-048]	1620	
CC1COCCN1c1cnc(NCc2c(F)ccc3c2CCO3)n2cnnc12 (stereo not shown) [HJM-061]	110	
CN(CCN1CCOCC1)c1cnc(NCc2c(F)ccc3c2CCO3)n2cnnc12 [HJM-024]	1110	
O=C(Nc1cnc(NCc2c(F)ccc3c2CCO3)n2cnnc12)C1CCCC1 [HJM-036]	160	
Fc1ccc2c(c1CNc1ncc(NCC3CC3)c3nncn13)CCO2 [HJM-022]	284	
CCN(CC)C(=O)c1cnc(NCc2c(F)ccc3c2CCO3)n2cnnc12 [HJM-026]	75.6	
O=C(Nc1cnc(NCc2c(F)ccc3c2CCO3)n2cnnc12)C1CCCOC1 (stereo not shown) [HJM-040]	175	
O=C1CCN(c2cnc(NCc3c(F)ccc4c3CCO4)n3cnnc23)CC1 [HJM-064]	180	
Fc1ccc2c(c1CNc1ncc(OCc3ccncc3)c3nncn13)CCO2 [HJM-141]	64.4	
Fc1ccc2c(c1CNc1ncc(N3CCC(F)(F)C3)c3nncn13)CCO2 [HJM-062]	445	
O=C(CN1CCOCC1)Nc1cnc(NCc2c(F)ccc3c2CCO3)n2cnnc12 [HJM-032]	317	
Fc1ccc2c(c1CNc1ncc(OCCOc3ccccc3)c3nncn13)CCO2 [HJM-126]	92.1	

Second part, led by results:

IC50 [1] [nM]	SMILES	IC50 (HeLa) [nM]
59.7	[2H]C([2H])(Oc1cnc(NCc2c(F)ccc3c2CCO3)n2cnnc12)C1COC1 [HJM-113]	
264	CN(C)CCOc1cnc(NCc2c(F)ccc3c2CCO3)n2cnnc12 [HJM-119]	
6.36	[2H]C([2H])([2H])N(C(=O)C1CC1)c1cnc(NCc2c(F)ccc3c2CCO3)n2cnnc12 [HJM-076]	
108	COc1ccc(OCCOc2cnc(NCc3c(F)ccc4c3CCO4)n3cnnc23)cc1 [HJM-127]	
123	Fc1ccc2c(c1CNc1ncc(OCc3cnccn3)c3nncn13)CCO2 [HJM-132]	
554	N#CCC(=O)Nc1cnc(NCc2c(F)ccc3c2CCO3)n2cnnc12 [HJM-074]	
74.4	CC(Oc1cnc(NCc2c(F)ccc3c2CCO3)n2cnnc12)c1cccnc1 (stereo not shown) [HJM-133]	
77.6	CN(C)CC(=O)Nc1cnc(NCc2c(F)ccc3c2CCO3)n2cnnc12 [HJM-081]	
126	Fc1ccc2c(c1CNc1ncc(OCC3CC3(F)F)c3nncn13)CCO2 (stereo not shown) [HJM-108]	
104	Cc1ccc(COc2cnc(NCc3c(F)ccc4c3CCO4)n3cnnc23)cn1 [HJM-130]	
40.5	Fc1ccc2c(c1CNc1ncc(C3CCN(CC(F)(F)F)CC3)c3nncn13)CCO2 [HJM-057]	
32.8	[2H]C([2H])(Nc1ncc(OC2CCOCC2)c2nncn12)c1c(F)ccc2c1CCO2 [HJM-110]	
54.9	COC1CCC(Oc2cnc(NCc3c(F)ccc4c3CCO4)n3cnnc23)CC1 (stereo not shown) [HJM-122]	
24.7	[2H]C([2H])(Nc1ncc(OCC2COC2)c2nncn12)c1c(F)ccc2c1CCO2 [HJM-109]	
792	CN1CCN(C(=O)Nc2cnc(NCc3c(F)ccc4c3CCO4)n3cnnc23)CC1 [HJM-097]	
550	CN1CC(COc2cnc(NCc3c(F)ccc4c3CCO4)n3cnnc23)C1 [HJM-116]	
201	O=C(C1CC1)N1CC(Oc2cnc(NCc3c(F)ccc4c3CCO4)n3cnnc23)C1 [HJM-115]	
198	COc1ccc(C(=O)Nc2cnc(NCc3c(F)ccc4c3CCO4)n3cnnc23)cc1 [HJM-090]	
286	CN1CCC(Oc2cnc(NCc3c(F)ccc4c3CCO4)n3cnnc23)C1=O (stereo not shown) [HJM-135]	
83.1	CCC(=O)Nc1cnc(NCc2c(F)ccc3c2CCO3)n2cnnc12 [HJM-070]	
131	OCCN1CCC(c2cnc(NCc3c(F)ccc4c3CCO4)n3cnnc23)CC1 [HJM-058]	
363	CS(=O)(=O)Nc1cnc(NCc2c(F)ccc3c2CCO3)n2cnnc12 [HJM-065]	

IC50 [1] [nM]	SMILES	IC50 (HeLa) [nM]
12.1	[2H]C([2H])(Nc1ncc(N(C(=O)C2CC2)C([2H])([2H])[2H])c2nncn12)c1c(F)ccc2c1CCO2 [HJM-078]	
235	CN1CC(C(=O)Nc2cnc(NCc3c(F)ccc4c3CCO4)n3cnnc23)C1 [HJM-087]	
159	Fc1ccc2c(c1CNc1ncc(OCc3cnco3)c3nncn13)CCO2 [HJM-134]	
132	COC1CCC(COc2cnc(NCc3c(F)ccc4c3CCO4)n3cnnc23)CC1 (stereo not shown) [HJM-123]	
309	CN(CC1CC1)C(=O)Nc1cnc(NCc2c(F)ccc3c2CCO3)n2cnnc12 [HJM-098]	
29.4	[2H]C([2H])(Nc1ncc(OC([2H])([2H])C2COC2)c2nncn12)c1c(F)ccc2c1CCO2 [HJM-112]	
37.9	[2H]C([2H])(Nc1ncc(OCC2CCOC2)c2nncn12)c1c(F)ccc2c1CCO2 (stereo not shown) [HJM-111]	
72.8	CC(C)C(=O)Nc1cnc(NCc2c(F)ccc3c2CCO3)n2cnnc12 [HJM-071]	
204	Cc1cccc(COc2cnc(NCc3c(F)ccc4c3CCO4)n3cnnc23)n1 [HJM-143]	
38.5	Fc1ccc2c(c1CNc1ncc(C3CCN(C4CC4)CC3)c3nncn13)CCO2 [HJM-059]	
95.3	O=C(NCCOc1cnc(NCc2c(F)ccc3c2CCO3)n2cnnc12)C1CC1 [HJM-147]	
62.5	COCCN(C)CC(=O)Nc1cnc(NCc2c(F)ccc3c2CCO3)n2cnnc12 [HJM-085]	
48.5	Fc1ccc2c(c1CNc1ncc(OC3CC(F)(F)C3)c3nncn13)CCO2 [HJM-107]	
389	Fc1ccc2c(c1CNc1ncc(OCCn3cncn3)c3nncn13)CCO2 [HJM-129]	
62	Fc1ccc2c(c1CNc1ncc(OCCn3cccc3)c3nncn13)CCO2 [HJM-128]	
394	CN1CC(Oc2cnc(NCc3c(F)ccc4c3CCO4)n3cnnc23)CC1=O (stereo not shown) [HJM-136]	
71.7	Fc1ccc2c(c1CNc1ncc(OCCn3ccnc3)c3nncn13)CCO2 [HJM-144]	
188	CN1CCOC(C(=O)Nc2cnc(NCc3c(F)ccc4c3CCO4)n3cnnc23)C1 (stereo not shown) [HJM-086]	
89.9	O=C(Nc1cnc(NCc2c(F)ccc3c2CCO3)n2cnnc12)c1ccno1 [HJM-096]	
38.5	Fc1ccc2c(c1CNc1ncc(OC(F)F)c3nncn13)CCO2 [HJM-150]	
14.9	[2H]C([2H])(Nc1ncc(N(C)C(=O)C2CC2)c2nncn12)c1c(F)ccc2c1CCO2 [HJM-077]	
291	COc1ccc(C(=O)Nc2cnc(NCc3c(F)ccc4c3CCO4)n3cnnc23)cn1 [HJM-091]	
